Experiment: Solubility of dicamba and its sodium salt

Row | SMILES | aqueous solubility (fully neutralized (molar equivalence of 1) sodium salt, water) | amount dissolved in mixtures of a water-miscible glycol and water (glycol 30% or higher by weight of the mixture)
1 | COc1c(Cl)ccc(Cl)c1C(=O)[O-].[Na+] [sodium salt of dicamba, sodium dicamba] | about 35 wt. % acid equivalent | –
2 | COc1c(Cl)ccc(Cl)c1C(=O)O [dicamba, 3,6-dichloro-2-methoxybenzoic acid] | – | about 45 % by weight of the solution

Source: patent publication US12193437B2, “Pesticidal compositions” (Monsanto Technology LLC, priority 2016, dated 2025)
